Data as given in patent US10472330B2, “Substituted triazenes protected from degradation by carboxylation of N1” (ARIZONA BOARD OF REGENTS ON BEHALF OF THE UNIVERSITY OF …, priority 2015, dated 2019).
Blank lines part the entries; values can stand above or below the compound they belong to.

Assays:
Solubility observations = type: physicochemical; settings: organic solvents
Experimental: (§1) It is possible that Compound A may be useful as a photo-catalytic base in the context of organic reactions. […] As noted previously, Compound A is quite stable to an excess of acetic acid in DMSO, showing only 12% degradation over 14 hours at room temperature. […] To confirm that this was due to the acid, a solution of Compound A (in pure DMSO) was irradiated. After four hours of constant irradiation in acid-free DMSO, an E:Z ratio of nearly 50:50 was observed.
As another non-limiting example, an azide (e.g., NHS-azide) to N-heterocyclic carbene (NHC) route may be used to synthesize triazabutadiene molecules (e.g., see FIG. 6C). For example, as shown in Compound 4 of FIG. 6D, a triazabutadiene molecule was synthesized from dimethyl imidazole derived NHC and phenyl azide. […] This change was confirmed to coincide with diazonium formation by trapping the reactive species with resorcinol to provide known diazo dye Sudan Orange G. When the triazabutadiene molecule (Compound 4) was treated with the much less acidic acetic acid, the same product was obtained.
To render the triazabutadiene water-soluble, methyl imidazole was alkylated with propane sultone to provide the Zwitterionic NHC precursor Compound 5a (see FIG. 6E). […] Compound 6a was highly colored, so its pH dependence was studied using UV/vis. The reactions were not only pH-, but also scan-frequency dependent. Upon finding this, the stability of Compound 6a was studied in D2O in the dark using NMR. Even in the dark it was unstable, but not in the diazonium-forming way. Both Compound 6b and a more hindered mesityl (Mes) substituted Compound 6c (see FIG. 6E) were synthesized to stabilize what was initially considered to be a rearrangement pathway that could be blocked by steric repulsion. […] Dissolution in 0.1 N NaOH rendered all compounds stable (e.g., no detectable degradation after 24 hours in the dark).
To further examine the reactivity of this class of compounds, variants Compound 6d and Compound 6e were synthesized (see FIG. 6G). It was hypothesized that the p-methoxy and p-nitro analogs (Compound 6d and Compound 6e, respectively) would display different reactivity profiles. […] After collecting the precipitate and dissolving it in deuterated methanol, no change was observed from a sample of Compound 6e that had never been exposed to a buffered solution. […] It is possible that: 1) that the sodium salt of Compound 6e is much less soluble than the potassium salt; or 2) with different solvating ions present the sulfonate interacts with the electron-poor N2 nitrogen atom of the triazabutadiene to break conjugation and form an insoluble complex (this is backed by a reversible color change of the starting rust-red solid, to the light yellow precipitate). […]

[1] = Stability in DMSO with excess acetic acid, with or without light; type: physicochemical
Experimental: as §1

[2] = E/Z photoisomerization and thermal Z to E reversion; type: physicochemical; settings: MeOD
[3] = Resorcinol trapping of diazonium species (Sudan Orange G formation); type: physicochemical; settings: excess resorcinol, pH 9 borate buffer
Source text: (§2) Referring to FIG. 5A, in some embodiments, triazabutadiene molecules of the present invention may readily photoisomerize to a more reactive Z-form. As an example, an aqueous solution of Compound A was irradiated with a simple hand-held UV lamp (“365 nm,” measured at 350 nm). Consumption of Compound A was observed after only a few hours. […] Without wishing to limit the present invention to any theory or mechanism, it was hypothesized that if a two-electron process were happening, then Compound A-Z would be more basic than Compound A-E. A 1.0 N NaOH solution of Compound A was treated with light. […] Benzene diazonium ions also absorb UV light to expel nitrogen and generate a benzene radical. In order to resolve if the initial cleavage undergoes a radical homolytic mechanism versus a two-electron heterolytic mechanism, a trapping experiment using resorcinol was conducted. (Resorcinol was chosen because it can serve a dual role as a radical scavenger and a trap benzene diazonium species that could be formed.) An excess of resorcinol was added to a pH 9 borate-buffered solution of Compound A and the mixture was irradiated with light. The known azobenzene, Sudan Orange G, was formed in a 65% yield (versus 4% for the non-irradiated reaction). Derivatives of Compound A were made to examine the effects of electronic perturbations on the light-induced degradation. […]

[4] = Stability of non-irradiated (dark) aqueous solutions; type: physicochemical
Source text: as §2

[5] = Photo-induced degradation of triazabutadienes under hand-held UV lamp, followed by NMR; type: physicochemical
Experimental: (i) The reaction was monitored by comparing starting materials (A, C, D, and E) with product (B); (ii) Peak absorption and extinction coefficients for all of the compounds were excitable by the UV source used; (iii) Time-dependent conversion of compounds was measured by NMR integration.
Referring to FIG. 5A, in some embodiments, triazabutadiene molecules of the present invention may readily photoisomerize to a more reactive Z-form. As an example, an aqueous solution of Compound A was irradiated with a simple hand-held UV lamp (“365 nm,” measured at 350 nm). Consumption of Compound A was observed after only a few hours. […] Without wishing to limit the present invention to any theory or mechanism, it was hypothesized that if a two-electron process were happening, then Compound A-Z would be more basic than Compound A-E. A 1.0 N NaOH solution of Compound A was treated with light. […] Benzene diazonium ions also absorb UV light to expel nitrogen and generate a benzene radical. In order to resolve if the initial cleavage undergoes a radical homolytic mechanism versus a two-electron heterolytic mechanism, a trapping experiment using resorcinol was conducted. (Resorcinol was chosen because it can serve a dual role as a radical scavenger and a trap benzene diazonium species that could be formed.) An excess of resorcinol was added to a pH 9 borate-buffered solution of Compound A and the mixture was irradiated with light. The known azobenzene, Sudan Orange G, was formed in a 65% yield (versus 4% for the non-irradiated reaction). Derivatives of Compound A were made to examine the effects of electronic perturbations on the light-induced degradation. […] A buffered borate solution was chosen due to its alkaline nature and lack of complicating signals in the NMR experiment. Compounds C-E all have absorption spectra that are well within the range of the UV lamp (see FIG. 5A(ii)).

[6] = In situ real-time pH measurement upon UV irradiation; type: physicochemical; settings: water, pH adjusted to 9 before irradiation, over several minutes
Experimental: In an effort to examine the rate order for the pH-increasing reaction more carefully, in situ, real-time pH measurements were acquired. Compound A was dissolved in water and the pH of the solution was adjusted to 9 such that it would not form Compound B in the absence of light. […] This spike was not at all consistent with the model of the pH increase being solely linked to the concentration of Compound B being generated.
A sample was irradiated and then the light was turned off once the pH of the solution started to increase noticeably. […] The experiment was repeated with increasing times of irradiation, and a saw-tooth pattern was obtained. The process was not completely reversible due to some degradation to Compound B. Indeed, triazabutadiene Compound A can serve a dual role of being a photo-masked base (see FIG. 4B(i)), and a base whose intrinsic functional group properties are altered photochemically (FIG. 4B(iii)).
Referring to FIG. 5A(iii), Compound C and Compound D were examined in an effort to find a base that was reversibly basic but also more resistant to degradation.

[7] = target: Bovine serum albumin (BSA) (Bos taurus, UniProt P02769); experiment: BSA labeling (gel fluorescence) after acidification; type: biochemical; settings: 10 μM BSA, 10 μM compound after acidification at pH 2 for 0-60 min, then pH 8.8, 0° C., 1 hour
Bovine serum albumin (BSA), sequence (P02769 25-607): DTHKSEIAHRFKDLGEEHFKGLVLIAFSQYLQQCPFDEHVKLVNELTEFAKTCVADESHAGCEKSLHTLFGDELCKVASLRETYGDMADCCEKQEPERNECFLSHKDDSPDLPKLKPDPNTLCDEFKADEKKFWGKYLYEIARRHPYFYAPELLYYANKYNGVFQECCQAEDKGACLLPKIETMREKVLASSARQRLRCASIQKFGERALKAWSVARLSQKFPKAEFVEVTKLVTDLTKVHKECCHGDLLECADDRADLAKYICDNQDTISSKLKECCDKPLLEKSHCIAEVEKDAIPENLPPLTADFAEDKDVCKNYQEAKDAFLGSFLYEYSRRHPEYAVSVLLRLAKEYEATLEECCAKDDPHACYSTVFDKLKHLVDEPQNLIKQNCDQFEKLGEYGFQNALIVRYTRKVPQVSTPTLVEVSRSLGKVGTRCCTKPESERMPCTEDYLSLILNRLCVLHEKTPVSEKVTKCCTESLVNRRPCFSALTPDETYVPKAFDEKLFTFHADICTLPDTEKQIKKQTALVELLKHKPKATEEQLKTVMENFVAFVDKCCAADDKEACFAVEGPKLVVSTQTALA
Experimental: To 10 μM solution of BSA in 100 mM Tris-Cl pH 8.8 was added 10 μM of Compound 53 after acidification (100 mM Tris-Cl pH 2) for 0, 1, 10, 30, or 60 minutes. […] The reaction was then allowed to proceed at 0° C. for 1 hour prior to loading onto a gel.
Bovine serum albumin (BSA) was used as a model protein to help assess the ability of Compound 53 to label proteins. BSA is known to bind to small molecules. Compound 53 was subjected to acid for varying times and then added to a solution of BSA at a pH sufficient to minimize background release of the diazonium ion (FIG. 11C). […] It is possible that this indicates a cleavage of the azobenzene linkage; however, the fluorescence could be quenched by reduction at several locations. To assess whether the standard azobenzene reduction is operative with these compounds, the resulting amino phenol may be oxidized and the ortho-iminoquinone may be trapped via established Diels-Alder chemistry. In some embodiments, molecules of the present invention can help distinguish between tyrosine and histidine modifications.

[8] = not pH dependent in the physiological range; cited from earlier work

Solubility in organic solvents (Solubility observations): limited solubility in all but DMSO
Degradation with excess acetic acid in DMSO ([1]; 14 hours, room temperature, no light): 12%
Degradation with acetic acid in DMSO upon irradiation ([1]; irradiation with light, same time frame (14 hours)): completely fell apart
Sudan Orange G yield, irradiated ([3]; irradiated with light): 65%
Sudan Orange G yield, non-irradiated ([3]; non-irradiated reaction): 4%
Stability at pH 14 in the dark ([4]; 1.0 N NaOH solution, pH 14, dark): stable for weeks
Stability of non-irradiated reaction ([4]; aqueous solution, similar conditions, no irradiation): stable for days
Consumption of starting material under constant irradiation at pH 14 ([5]; 1.0 N NaOH, pH 14, 20 hours constant irradiation): near complete consumption
Consumption on UV irradiation (time) ([5]; aqueous solution, hand-held UV lamp (365 nm, measured at 350 nm)): a few hours
pH of solution upon exposure to 350 nm light [6]: ~10
SMILES: Cc1cc(C)c(-n2ccn(CCCS(=O)(=O)[O-])c2=NN=Nc2ccccc2)c(C)c1.[K+] [Compound A]
Rate of first-order thermal isomerization [2]: 3e-05 s⁻¹

Labeling of BSA [7]: labeled in a pH dependent manner
SMILES: Cc1cc(C)c(-n2ccn(CCCS(=O)(=O)O)c2=NN=Nc2ccc3c(C(F)(F)F)cc(=O)oc3c2)c(C)c1 [Compound 53]

SMILES: N#[N+]c1ccccc1 [benzenediazonium]
Half-life of first-order degradation to phenol [8]: ~4 h
